Key:
Settings in all cases: exposure time: 72 h
E28 [1] = patient-derived glioblastoma stem cells of classical subtype; assay: surviving fraction (nuclei count normalised to DMSO); higher = more cells surviving (less toxic)
E31 [2] = patient-derived glioblastoma stem cells of proneural subtype; assay: as above
E21 [3] = patient-derived glioblastoma stem cells of mesenchymal subtype; assay: as above
E57 [4] = patient-derived glioblastoma stem cells of mesenchymal subtype; assay: as above
FT3469 [5] = normal neural stem cell line; assay: as above
E34 [6] = patient-derived glioblastoma stem cells of proneural subtype; assay: as above
E13 [7] = patient-derived glioblastoma stem cells of classical subtype; assay: as above
E28 [8] = assay: phenotypic distance (Euclidean, principal components) from DMSO controls (arbitrary units); higher = stronger morphological change
E31 [9] = assay: as above
E21 [10] = assay: as above
E57 [11] = assay: as above
FT3469 [12] = assay: as above
E34 [13] = assay: as above
E13 [14] = assay: as above
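For phenotypic distance (Euclidean, principal components) from DMSO controls in this document: cell Painting imaging in 384-well plates, CellProfiler features reduced to at least 20 principal components, Euclidean distance versus same-plate DMSO vehicle wells (0.1% v/v), median over six images per well.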
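For surviving fraction (nuclei count normalised to DMSO) in this document: nuclei counted by high-content imaging of Hoechst-stained cells in laminin-coated 384-well plates, relative to 0.1% DMSO vehicle wells, with staurosporine as cell-death control.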

Clc1ccc(COC(Cn2ccnc2)c2ccc(Cl)cc2Cl)c(Cl)c1 (stereo not drawn) [Miconazole]
Settings	phenotypic distance	surviving fraction
E13 [7], 4.1 nM	–	0.787
E13 [7], 12.3 nM	–	1.01
E13 [7], 37 nM	–	0.925
E13 [7], 111.1 nM	–	0.818
E13 [7], 333.3 nM	–	0.709
E13 [7], 1000 nM	–	0.814
E13 [7], 3000 nM	–	0.539
E13 [14], 4.1 nM	0.853	–
E13 [14], 12.3 nM	0.53	–
E13 [14], 37 nM	0.487	–
E13 [14], 111.1 nM	0.696	–
E13 [14], 333.3 nM	1.05	–
E13 [14], 1000 nM	1.1	–
E13 [14], 3000 nM	2.12	–
E21 [3], 4.1 nM	–	0.897
E21 [3], 12.3 nM	–	1.05
E21 [3], 37 nM	–	0.979
E21 [3], 111.1 nM	–	1.01
E21 [3], 333.3 nM	–	1.02
E21 [3], 1000 nM	–	0.955
E21 [3], 3000 nM	–	0.823
E21 [10], 4.1 nM	0.64	–
E21 [10], 12.3 nM	0.477	–
E21 [10], 37 nM	0.693	–
E21 [10], 111.1 nM	0.637	–
E21 [10], 333.3 nM	0.796	–
E21 [10], 1000 nM	1.19	–
E21 [10], 3000 nM	2.32	–
E28 [1], 4.1 nM	–	1.09
E28 [1], 12.3 nM	–	1.19
E28 [1], 37 nM	–	1.06
E28 [1], 111.1 nM	–	1.13
E28 [1], 333.3 nM	–	1.07
E28 [1], 1000 nM	–	0.886
E28 [1], 3000 nM	–	0.537
E28 [8], 4.1 nM	0.619	–
E28 [8], 12.3 nM	0.863	–
E28 [8], 37 nM	0.65	–
E28 [8], 111.1 nM	0.493	–
E28 [8], 333.3 nM	0.784	–
E28 [8], 1000 nM	0.766	–
E28 [8], 3000 nM	1.23	–
E31 [2], 4.1 nM	–	1
E31 [2], 12.3 nM	–	1.04
E31 [2], 37 nM	–	1.37
E31 [2], 111.1 nM	–	0.936
E31 [2], 333.3 nM	–	1.13
E31 [2], 1000 nM	–	1.06
E31 [2], 3000 nM	–	0.976
E31 [9], 4.1 nM	0.925	–
E31 [9], 12.3 nM	0.493	–
E31 [9], 37 nM	1.32	–
E31 [9], 111.1 nM	0.834	–
E31 [9], 333.3 nM	1.3	–
E31 [9], 1000 nM	1.07	–
E31 [9], 3000 nM	1.51	–
E34 [6], 4.1 nM	–	0.9
E34 [6], 12.3 nM	–	0.972
E34 [6], 37 nM	–	1
E34 [6], 111.1 nM	–	0.977
E34 [6], 333.3 nM	–	1.01
E34 [6], 1000 nM	–	0.981
E34 [6], 3000 nM	–	0.82
E34 [13], 4.1 nM	0.501	–
E34 [13], 12.3 nM	0.465	–
E34 [13], 37 nM	0.883	–
E34 [13], 111.1 nM	0.636	–
E34 [13], 333.3 nM	0.903	–
E34 [13], 1000 nM	0.701	–
E34 [13], 3000 nM	1.2	–
E57 [4], 4.1 nM	–	1.04
E57 [4], 12.3 nM	–	1.09
E57 [4], 37 nM	–	1.1
E57 [4], 111.1 nM	–	1.06
E57 [4], 333.3 nM	–	1.07
E57 [4], 1000 nM	–	0.918
E57 [4], 3000 nM	–	0.595
E57 [11], 4.1 nM	0.349	–
E57 [11], 12.3 nM	0.269	–
E57 [11], 37 nM	0.652	–
E57 [11], 111.1 nM	1.25	–
E57 [11], 333.3 nM	0.929	–
E57 [11], 1000 nM	1.89	–
E57 [11], 3000 nM	3.89	–
FT3469 [5], 4.1 nM	–	1.17
FT3469 [5], 12.3 nM	–	1.07
FT3469 [5], 37 nM	–	0.966
FT3469 [5], 111.1 nM	–	0.907
FT3469 [5], 333.3 nM	–	0.954
FT3469 [5], 1000 nM	–	0.875
FT3469 [5], 3000 nM	–	0.492
FT3469 [12], 4.1 nM	0.444	–
FT3469 [12], 12.3 nM	0.593	–
FT3469 [12], 37 nM	0.461	–
FT3469 [12], 111.1 nM	0.559	–
FT3469 [12], 333.3 nM	0.587	–
FT3469 [12], 1000 nM	0.791	–
FT3469 [12], 3000 nM	2.66	–

Reference: the supplement of paper PMC13207355
